Test results: patent publication US8980874B2, “Method and composition for treating diabetic ketoacidosis” (Midwestern University, priority 2009, dated 2015)
Entries after “also recorded” stand apart in the source; their conditions may differ. Non-standard residues stand in square brackets, D forms with d. Residues, ends and D or L forms follow the SMILES beside them.

How the values were obtained:
Format in all cases: in vivo
rat model of DKA [1] = experiment: Plasma ET-1 level (Enzyme Immunometric Assay) in diabetic ketoacidosis rats
Description: In order to analyze the change in plasma ET-1 level during the treatment, blood samples were withdrawn through right femoral artery of the rats before and at the end of experiment and were collected into chilled EDTA tubes (1 mg/mL blood) containing aprotinin (500 KIU/mL of blood). The blood samples were centrifuged at 1,600×g for 15 minutes at 0° C. and plasma separated was stored at −70° C. until analyzed. ET-1 level was estimated using Assay's Design's Endothelin-1 Enzyme Immunometric Assay Kit (Nowicki et al., 2005; Brondani et al., 2007). Briefly, plasma samples and standards were added to wells coated with a monoclonal antibody specific for ET-1. The plate then was washed after 24 hours of incubation, leaving only bound ET-1 on the plate. A solution of horseradish peroxidase (HRP) labeled monoclonal antibody to ET-1 then was added, which binds to the ET-1 captured on the plate. The plate was incubated for 30 min, then washed to remove excess HRP labeled antibody. A solution of 3,3′,5,5′-tetramethylbenzidine (TMB) substrate was added, which generates a blue color when catalyzed by the HRP. Hydrochloric acid (1N) was added to stop the substrate reaction, and the resulting yellow color was read at 450 nm using DTX 800 Multimode detector. The data was analyzed with Multimode Detection Software (Beckman Coulter, Inc., Fullerton, Calif.). The measured optical density is directly proportional to the concentration of ET-1 in either standards/plasma. Blood samples from all the groups were collected before the start and at end of the treatment.
(§1) Group 4: Diabetic saline/insulin treated (D-Saline+insulin treated): Rats were injected with streptozotocin in citrate buffer (150 mg/kg ip) to induce diabetes and ketoacidosis. On day three, rats were treated with 1.5 U/kg regular insulin (Humulin® R (Regular human insulin, rDNA origin). On day four, saline and insulin treatment was carried out. Rats were infused via cannulated femoral vein saline, 0.9% NaCl at 80 mL/kg/hr and 1.5 U/kg/hr regular insulin for one hour. During the next two through four hours, rats were infused with saline, 0.9% NaCl at 40 mL/kg/hr and 1.5 U/kg/hr regular insulin (Yuen et al., 2008).
(§2) Group 5: Diabetic BMS-182874/saline/insulin treated (D-BMS+Saline+insulin treated): Rats were injected with streptozotocin in citrate buffer (150 mg/kg ip) to induce diabetes and ketoacidosis. On day three, rats were treated with 1.5 U/kg regular insulin. On day four, rats were administered a bolus dose of selective ETA receptor antagonist, BMS-182874 (9 mg/kg), then saline and insulin treatment was carried out. Rats were infused via cannulated femoral vein saline, 0.9% NaCl at 80 mL/kg/hr and 1.5 U/kg/hr regular insulin for one hour. During the next two through four hours rats were infused with saline, 0.9% NaCl at 40 mL/kg/hr and 1.5 U/kg/hr regular insulin.
(§3) Group 6: Diabetic BQ123/saline/insulin treated (D-BQ+saline+insulin treated): Same as above for Group 5, except BQ123 (1 mg/kg body weight) is used as a substitute for BMS-182874 (9 mg/kg).
(§4) Data are presented as mean±SEM. The significance of differences was estimated by one-way analysis of variance (intra group comparison with respect to base line data) and two-way analysis of variance (inter group comparison with respect to corresponding time points from each groups) followed by application of the Dunnett's Multiple Comparisons and Bonferroni test respectively. A P value of less than 0.05 was considered to be significant. The statistical analysis was processed with GraphPad Prism software Version 5.00.

rat model of DKA [2] = experiment: Arterial blood gases, electrolytes, lactate and hematocrit in diabetic ketoacidosis rats
Source text: Arterial blood pH, pO2, pCO2, Na^+, K^+, lactate, and hematocrit were monitored prior to, at one hour, and at the end of treatment. Blood samples were drawn from the arterial cannula using blood gas sampling syringes (Innovative Medical Technologies, Inc. Leawood, Kans.) and analyzed using a GEM Premier 3000 unit (Instrument Laboratory, Lexington, Mass.). Blood samples were withdrawn from the femoral artery for baseline reading prior to start of treatment, after the first hour of treatment, and then at the end of the treatment (fifth hour of experiment).
as §1, §2, §3, §4

rat model of DKA [3] = experiment: Cardiovascular parameters (MAP, pulse pressure, heart rate) in diabetic ketoacidosis rats; details: result in words
Source text: Rats were anaesthetized with urethane (1.5 g/kg ip.) and prepared for the determination of hemodynamic parameters (Gulati et al., 1997a; Gulati et al., 1997b). The anesthetized rats were shaved and immobilized to prepare for cannulation. A 2-3 centimeter (cm) incision was made above the femoral vein and artery and the vessels were dissected and cleaned. The left femoral vein was cannulated (PE-50 tubing, Clay Adams, Parsipanny, N.J.) and secured for drug administration. An ultra-miniature pressure transducer SPR-320 (2F Polyurethane), with a single pressure sensor side mounted at the tip (Millar Instruments, Houston, Tex.) was inserted in the left femoral artery to acquire the hemodynamic signals. Pressure transducer was connected to bridge amplifier (ML221 Bridge Amp; AD Instruments, Mountain View, Calif., USA) with Viking connector (AEC-10C) and the signals were continuously acquired at a sampling rate of 1000 S^−1 using Millar PowerLab 16/30 data acquisition system (AD Instruments, Mountain View, Calif., USA). Mean arterial pressure (MAP), heart rate (HR), and pulse pressure (PP) were determined and analyzed with LabChart-5.00 software program (Millar Instruments). After the experiment was completed, the animals were euthanized with a high dose of urethane (3 gm/kg).
as §1, §2, §3, §4

rat model of DKA [4] = experiment: Brain blood perfusion (Laser Doppler Flowmetry) in diabetic ketoacidosis rats; details: day 4, FIG. 6, antagonist given with saline+insulin, result in words
Description: A burr hole was drilled into the rat skull approximately 2 millimeters (mm) to the left of midline, being careful not to disturb the brain tissue itself. Cerebrovascular perfusion was measured via a fiber optic probe (PF407) applied to the surface of the rat brain. The probe was connected to a Periflux PF2b 4000 Laser Doppler Flowmetry unit (Perimed, Stockholm, Sweden). The perfusion was determined by measuring the passage of red blood cells through the capillaries.
as §1, §2, §3, §4

[5] = day 4, compared to diabetic untreated rats, result in words
[6] = saline+insulin, alone or after bolus BMS-182874 9 mg/kg or BQ123 1 mg/kg
[7] = saline+insulin, alone or after bolus BMS-182874 9 mg/kg or BQ123 1 mg/kg, instrument floor 6.80

CC(C)C[C@@H]1NC(=O)[C@@H](C(C)C)NC(=O)[C@@H]2CCCN2C(=O)[C@@H](CC(=O)O)NC(=O)[C@@H](Cc2c[nH]c3ccccc23)NC1=O [BQ123, Cyclo(D-Trp-D-Asp-Pro-D-Val-Leu)] (cyclo(L[dW][dD]P[dV]))
plasma ET-1, Day 4 (pre tx) (rat model of DKA [1]; baseline before treatment, mean±SEM): 15.78 ± 4.11 pg/mL | effect of treatment on plasma ET-1 level (rat model of DKA [1]; day 4, result in words (Table 4, FIG. 9)): did not significantly affect plasma ET-1 level | plasma ET-1, Day 4 (end of tx) (rat model of DKA [1]; saline+insulin, alone or after bolus BMS-182874 9 mg/kg or BQ123 1 mg/kg, mean±SEM): 26.53 ± 5.52 pg/mL | arterial blood pH, Day 4 (pre-tx) (rat model of DKA [2]; baseline, instrument could not record pH below 6.80, mean±SEM): 6.82 ± 0.02 | arterial blood pCO2, Day 4 (pre-tx) (rat model of DKA [2]; baseline, mean±SEM): 25.00 ± 3.7 mmHg | arterial blood pO2, Day 4 (pre-tx) (rat model of DKA [2]; baseline, mean±SEM): 130.2 ± 14.04 mmHg | blood K+ level, Day 4 (pre-tx) (rat model of DKA [2]; baseline, mean±SEM): 3.4 ± 0.45 mmol/L | blood Na+ level, Day 4 (pre-tx) (rat model of DKA [2]; baseline, mean±SEM): 140.00 ± 2.87 mmol/L | blood hematocrit (Hct), Day 4 (pre-tx) (rat model of DKA [2]; baseline, mean±SEM): 42.6 ± 4.81% | effect of treatment on arterial blood pH (acidosis) (rat model of DKA [2]; day 4, antagonist given with saline+insulin, result in words): produced a significant improvement in arterial blood pH | effect of treatment on blood K+ levels (rat model of DKA [2]; [5]): significantly reduced the change in blood K^+ levels | effect of treatment on blood lactate levels (rat model of DKA [2]; [5]): significantly reduced the change in blood lactate levels | effect of treatment on hematocrit (rat model of DKA [2]; [5]): significantly reduced the hematocrit | arterial blood pCO2, Day 4 (1 hour of tx) (rat model of DKA [2]; [6]): 23.6 ± 2.17 mmHg | arterial blood pCO2, Day 4 (end of tx) (rat model of DKA [2]; [6]): 23.2 ± 1.95 mmHg | arterial blood pO2, Day 4 (1 hour of tx) (rat model of DKA [2]; [6]): 128.4 ± 11.006 mmHg | arterial blood pO2, Day 4 (end of tx) (rat model of DKA [2]; [6]): 141.2 ± 4.6 mmHg | blood K+ level, Day 4 (1 hour tx) (rat model of DKA [2]; [6]): 2.04 ± 0.29 mmol/L | blood K+ level, Day 4 (end of tx) (rat model of DKA [2]; [6]): 2.38 ± 0.34 mmol/L | blood Na+ level, Day 4 (1 hour of tx) (rat model of DKA [2]; [6]): 147 ± 1.3 mmol/L | blood Na+ level, Day 4 (end of tx) (rat model of DKA [2]; [6]): 150.04 ± 2.43 mmol/L | blood hematocrit (Hct), Day 4 (1 hour of tx) (rat model of DKA [2]; [6]): 31.4 ± 2.97 % | blood hematocrit (Hct), Day 4 (end of tx) (rat model of DKA [2]; [6]): 31.8 ± 2.21 % | arterial blood pH, Day 4 (1 hour of tx) (rat model of DKA [2]; [7]): 6.81 ± 0.01 | arterial blood pH, Day 4 (end of tx) (rat model of DKA [2]; [7]): 6.91 ± 0.01 | effect on mean arterial pressure (rat model of DKA [3]; day 4, FIG. 3, antagonist given with saline+insulin): stabilized the arterial pressure | effect on heart rate (rat model of DKA [3]; day 4, FIG. 5, antagonist given with saline+insulin): did not produce any decrease in heart rate compared to baseline | effect on cerebral blood perfusion (rat model of DKA [4]): significantly blocked; also recorded: prevented an insulin induced increase in cerebral blood perfusion
